In PubChem BioAssay (NCI):
Several values for one entry are separate records, joined by “and”; a condition that tells them apart may be missing. Identical values can stand only once.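 Following 48 hours of exposure in 96-well plates, responses at five concentrations were used to interpolate endpoints linearly. Here, GI50 denotes the concentration required for 50% inhibition of growth. TGI: concentration producing complete growth inhibition.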

Legend:
Assay in all cases: NCI anticancer screen, dose series, 48 h
[1] = tested on: U251 CNS
[2] = tested on: TK-10 renal
[3] = tested on: IGROV1 ovarian
[4] = tested on: HOP-62 NSCLC
[5] = tested on: LOX IMVI melanoma
[6] = tested on: M14 melanoma
[7] = tested on: RXF 393 renal
[8] = tested on: CCRF-CEM leukemia
[9] = tested on: NCI-H460 lung
[10] = tested on: HOP-92 NSCLC

Structure (SMILES) | GI50 [1] | TGI [1] | GI50 [2] | TGI [2] | GI50 [3] | TGI [3] | GI50 [4] | TGI [4] | GI50 [5] | TGI [5] | GI50 [6] | TGI [6] | GI50 [7] | TGI [7] | GI50 [8] | TGI [8] | GI50 [9] | TGI [9] | TGI [10] | GI50 [10]
N/C(=N\O)c1ncc(-c2ccc(C(F)(F)F)cc2)c(NC2CCCCCC2)n1 | 4.35 µM and 1.83 µM | 7.51 µM | 2.49 µM | 9.73 µM | 6.72 µM and 2.26 µM | 10.7 µM | 7.5 µM and 6.53 µM | 23.2 µM | 8.76 µM and 2.85 µM | 10.8 µM | 9.68 µM and 3.24 µM | 13.9 µM | 2.74 µM | 11.6 µM | 2.46 µM | 11.8 µM | 6.6 µM and 2.6 µM | 9.34 µM | – | –
COC(=O)C(C(=O)C(=O)Nc1cccc(O)c1)c1nc2ccc(Cl)cc2[nH]c1=O (configuration not stated) | – | > 100 µM | – | > 100 µM | – | > 100 µM | – | > 100 µM | – | > 100 µM | – | > 100 µM | – | > 100 µM | – | > 100 µM | – | > 100 µM | > 100 µM | –
COC(=O)CCC(NC(=S)N/N=C(\C)c1ccccn1)C(=O)OC (configuration not stated) | – | > 100 µM | – | > 100 µM | – | > 100 µM | – | > 100 µM | – | > 100 µM | – | > 100 µM | – | > 100 µM | – | > 100 µM | – | > 100 µM | > 100 µM | –
CCCNc1nc(N(C)O)nc(N(C)O)n1 | 0.955 µM | > 100 µM | 1.44 µM | > 100 µM | 2.13 µM | 14.6 µM | 1.82 µM | 97.6 µM | 1.31 µM | > 100 µM | 2.05 µM | > 29.4 µM | 2.96 µM | > 62 µM | 0.432 µM | 5.46 µM | 0.563 µM | > 56.8 µM | > 100 µM | 4.75 µM
N#Cc1ccc(Oc2nccc(-c3c(-c4ccc(F)cc4)ncn3C3CCNCC3)n2)cc1 | 11.8 µM | > 25 µM | > 25 µM | > 25 µM | > 25 µM | > 25 µM | > 25 µM | > 25 µM | 5.85 µM | > 13.5 µM | > 16.4 µM | > 25 µM | 20.3 µM | > 25 µM | 7.79 µM | 24.7 µM | 14 µM | > 25 µM | > 25 µM | 4.04 µM
CC(=O)OC1(C#N)CC2OC1C1C2N1C(=O)c1ccccc1 (configuration not stated) | – | > 100 µM | – | > 100 µM | – | > 100 µM | – | > 100 µM | – | > 100 µM | – | > 100 µM | – | > 100 µM | – | > 100 µM | – | > 100 µM | > 100 µM | –
COc1c(OC(C)=O)cc2c(OC(C)=O)c1CC(C)CC(OC)C(O)C(C)/C=C(\C)C(OC(N)=O)C(OC)/C=C\C=C(/C)C(=O)N2 (configuration not stated) | – | > 100 µM | – | > 100 µM | – | > 100 µM | – | > 100 µM | – | > 100 µM | – | > 100 µM | – | > 100 µM | – | 98.3 µM | – | > 100 µM | > 100 µM | –
Cc1ccc2nc3c(Cl)cc(=O)cc-3sc2c1 | – | 45.5 µM | – | 53.8 µM | – | 38.1 µM | – | – | – | – | – | 60.5 µM | – | – | – | 19.8 µM | – | 83.5 µM | 36.7 µM | –
COc1ccc(CN2c3ccccc3Sc3ccccc32)cc1F | 0.561 µM | > 100 µM | > 100 µM | > 100 µM | 1.45 µM | > 100 µM | 4.34 µM | > 100 µM | 0.798 µM | > 100 µM | 0.365 µM | > 100 µM | – | – | 0.407 µM | > 100 µM | 0.379 µM | > 100 µM | > 38.9 µM | 1.25 µM
C/C(CN1C(=O)c2ccccc2C1=O)=N\NS(=O)(=O)c1ccccc1 | – | > 100 µM | – | > 100 µM | – | > 100 µM | – | > 100 µM | – | > 100 µM | – | > 100 µM | – | – | – | > 100 µM | – | > 100 µM | > 100 µM | –
CCC(=O)C1=C(OC(C)=O)C2Cc3c(n(C)c4ccccc34)C(C1)N2C (configuration not stated) | – | > 100 µM | – | > 100 µM | – | > 100 µM | – | – | – | > 100 µM | – | > 100 µM | – | – | – | 80.9 µM | – | > 100 µM | > 100 µM | –
CC1=C(N2CC2)C(=O)C(CO)=C(N2CC2)C1=O | – | 0.285 µM | 0.0405 µM | 0.721 µM and 0.309 µM | 0.0168 µM | 0.0703 µM and 0.0518 µM | 0.0219 µM | 0.0569 µM | 0.00307 µM | 0.0226 µM and 0.187 µM | 0.0162 µM | 0.119 µM and 0.0522 µM | – | 0.0946 µM | 0.000612 µM | – | 0.00476 µM | 1.85 µM | 0.247 µM and 0.28 µM | 0.0183 µM and 0.018 µM
COc1cc2cc3c4c(cc(OC)c(OC)c4c2cc1OC)CCN3C(=O)CCCC(=O)O | – | > 100 µM | – | > 100 µM | – | > 100 µM | – | > 100 µM | – | > 100 µM | – | > 100 µM | – | > 100 µM | – | > 100 µM | – | > 100 µM | > 100 µM | –
COc1cc(/C=C/C(=O)C(=Cc2ccc(F)c(F)c2)C(=O)/C=C/c2ccc(O)c(OC)c2)ccc1O | 1.7 µM | 3.51 µM | 2.67 µM | 8.37 µM | 3.82 µM | 67.9 µM | 2.87 µM | 9.38 µM | 1.95 µM | 4.48 µM | – | – | 1.74 µM | 3.2 µM | 2.46 µM | > 100 µM | 2.68 µM | 6.96 µM | 6.05 µM | 2.51 µM
CC1C2Cc3ccc(O)cc3C1(C)CCN2C (configuration not stated) | – | > 100 µM | – | > 100 µM | – | > 100 µM | – | > 100 µM | – | > 100 µM | – | > 100 µM | – | > 100 µM | – | > 100 µM | – | > 100 µM | – | –
CC(C)(O)[C@@H]1CCC(C)([C@H]2[C@@H](O)CC3(C)C4CC(OC5OC(CO)C(O)C(O)C5O)C5C(C)(C)[C@@H](OC6OCC(O)C(O)C6O)CC[C@@]56C[C@@]46CC[C@]23C)O1 (some centres not stated) | – | > 100 µM | – | > 100 µM | – | > 100 µM | – | – | – | > 100 µM | – | > 100 µM | – | > 100 µM | – | > 100 µM | – | > 100 µM | > 100 µM | –
COc1ccc(Nc2c3ccccc3nc3c2c2ccccc2n3C)cc1 | 36.5 µM | > 100 µM | 13 µM | > 100 µM | 15.3 µM | > 100 µM | > 100 µM | > 100 µM | 7.62 µM | 47.2 µM | – | – | 64.9 µM | > 100 µM | – | – | 5.2 µM | > 100 µM | – | –
